How the values were obtained:
Bel-7402 = assay: Antiproliferative activity against human Bel-7402 cells measured after 48 hrs by SRB assay; format: functional, cell-based
MCF7 = assay: Antiproliferative activity against human MCF7 cells measured after 48 hrs by SRB assay; format: functional, cell-based
HepG2 [1] = assay: Antiproliferative activity against human HepG2 cells measured after 48 hrs by SRB assay; format: functional, cell-based
[2] = Aqueous solubility of compound in water at pH 7.4 incubated at 20 degC by HPLC-UV analysis; format: physicochemical
HepG2 [3] = assay: Antitumor activity against human HepG2 cells xenografted in iv dosed BALB/c nude mouse assessed as tumor growth inhibition administered every other day for 14 to 29 days; format: functional, organism-based; conditions: time 14-29 day
MDA-MB-231 = assay: Antitumor activity against human MDA-MB-231 cells xenografted in BALB/c nude mouse assessed as reduction in tumor burden at 60 mg/kg, ip qod for 14 to 29 days relative to control; format: functional; design: scale not given: the % may be the effect or the level left; conditions: time 14-29 day
[4] = Toxicity in human MDA-MB-231 cells xenografted BALB/c nude mouse assessed as effect on body weight at 60 mg/kg, ip qod for 14 to 29 days measured every two days during compound dosing; format: organism-based; conditions: in vivo, time 14-29 day
HepG2 [5] = assay: Antitumor activity against human HepG2 cells xenografted in BALB/c nude mouse assessed as reduction in tumor volume administered for 29 days by caliper method; format: functional, cell-based; conditions: time 29.0 day

Compound	IC50 (Bel-7402; Homo sapiens, Bel-7402, 48 h)	IC50 (MCF7; Homo sapiens, MCF7, 48 h)	IC50 (HepG2 [1]; Homo sapiens, HepG2, 48 h)	solubility [2]	also measured
COc1ccc(N(CCN2CCSCC2)S(=O)(=O)c2ccc3c(c2)c2ccccc2n3C)c(OC)n1	4.1 µM	4.61 µM	1.36 µM		
COc1ccc(N(CCN2CCC(N3CCCC3)CC2)S(=O)(=O)c2ccc3c(c2)c2ccccc2n3C)c(OC)n1.Cl				> 30 mg/mL	
COc1ccc(N(CCN2CCCC2)S(=O)(=O)c2ccc3c(c2)c2ccccc2n3C)c(OC)n1	4.98 µM	5.7 µM	3.19 µM		
COc1ccc(N(CCn2ccnc2)S(=O)(=O)c2ccc3c(c2)c2ccccc2n3C)c(OC)n1.Cl				21.5 mg/mL	
COc1ccc(N(CCN2CCCC2)S(=O)(=O)c2ccc3c(c2)c2ccccc2n3C)c(OC)n1.Cl				0.6 mg/mL	
COc1ccc(N(CCO)S(=O)(=O)c2ccc3c(c2)c2ccccc2n3C)c(OC)n1.Cl				0.15 mg/mL	
COc1ccc(N(CCCN2CCC3(CCN(C)CC3)C2)S(=O)(=O)c2ccc3c(c2)c2ccccc2n3C)c(OC)n1.Cl				> 30 mg/mL	
COc1ccc(N(CCCN2CCC(N3CCCC3)CC2)S(=O)(=O)c2ccc3c(c2)c2ccccc2n3C)c(OC)n1.Cl				> 30 mg/mL	
COc1ccc(N(CCCN2CCC(N3CCCC3)CC2)S(=O)(=O)c2ccc3c(c2)c2ccccc2n3C)c(OC)n1	6.24 µM	15.8 µM	3.89 µM		
COc1ccc(N(CCOP(=O)(O)O)S(=O)(=O)c2ccc3c(c2)c2ccccc2n3C)c(OC)n1.Cl				1.75 mg/mL	
COc1ccc(N(CCN2CCC3(CCN(C)CC3)C2)S(=O)(=O)c2ccc3c(c2)c2ccccc2n3C)c(OC)n1	4.23 µM	14.6 µM	2.84 µM		
COc1ccc(N(CCNC(=O)CN)S(=O)(=O)c2ccc3c(c2)c2ccccc2n3C)c(OC)n1.Cl.Cl				> 30 mg/mL	
COc1ccc(N(CCOC(N)=O)S(=O)(=O)c2ccc3c(c2)c2ccccc2n3C)c(OC)n1	> 25 µM		5.11 µM		
COc1ccc(N(CCN)S(=O)(=O)c2ccc3c(c2)c2ccccc2n3C)c(OC)n1.Cl				0.24 mg/mL	
COc1ccc(N(CCN2CCC3(CCN(C)CC3)C2)S(=O)(=O)c2ccc3c(c2)c2ccccc2n3C)c(OC)n1.Cl				> 30 mg/mL	
COc1ccc(N(CCCN2CCN(C)CC2)S(=O)(=O)c2ccc3c(c2)c2ccccc2n3C)c(OC)n1.Cl				20.6 mg/mL	
COc1ccc(N(CCN2CCOCC2)S(=O)(=O)c2ccc3c(c2)c2ccccc2n3C)c(OC)n1	2.69 µM	4.65 µM	1.06 µM		
COc1ccc(N(CC(N)=O)S(=O)(=O)c2ccc3c(c2)c2ccccc2n3C)c(OC)n1.Cl				0.02 mg/mL	
COc1ccc(N(CCN)S(=O)(=O)c2ccc3c(c2)c2ccccc2n3C)c(OC)n1	4.38 µM	6.63 µM	4.75 µM		
COc1ccc(NS(=O)(=O)c2ccc3c(c2)c2ccc(O)cc2n3C)c(OC)n1.Cl				0.0015 mg/mL	
COc1ccc(N(CCCN2CCC3(CCN(C)CC3)C2)S(=O)(=O)c2ccc3c(c2)c2ccccc2n3C)c(OC)n1	6.21 µM	21.3 µM	3.59 µM		
COc1ccc(N(CCN2CCCCC2)S(=O)(=O)c2ccc3c(c2)c2ccccc2n3C)c(OC)n1.Cl				0.58 mg/mL	
COc1ccc(N(CCOP(=O)(O)O)S(=O)(=O)c2ccc3c(c2)c2ccccc2n3C)c(OC)n1 [listing 1 of 2 here]					IC50 (Bel-7402; bel-7402): 1.15 µM; IC50 (MCF7; mcf7): 1.01 µM; IC50 (HepG2 [1]; hepg2): 0.74 µM
COc1ccc(N(CCCN2CCN(C)CC2)S(=O)(=O)c2ccc3c(c2)c2ccccc2n3C)c(OC)n1	11.6 µM	21 µM	5.6 µM		
COc1ccc(N(CCN2CCOCC2)S(=O)(=O)c2ccc3c(c2)c2ccccc2n3C)c(OC)n1.Cl				0.44 mg/mL	

Compound	IC50 (Bel-7402; Homo sapiens, Bel-7402, 48 h)	IC50 (MCF7; Homo sapiens, MCF7, 48 h)	IC50 (HepG2 [1]; Homo sapiens, HepG2, 48 h)	solubility [2]	also measured
COc1ccc(N(CCN2CCCCC2)S(=O)(=O)c2ccc3c(c2)c2ccccc2n3C)c(OC)n1	4.99 µM	5.82 µM	2.05 µM		
COc1ccc(N(CCN2CCN(C)CC2)S(=O)(=O)c2ccc3c(c2)c2ccccc2n3C)c(OC)n1.Cl				25.7 mg/mL	
COc1ccc(N(CCN2CCN(C)CC2)S(=O)(=O)c2ccc3c(c2)c2ccccc2n3C)c(OC)n1					TGI (HepG2 [3]): Dose-dependent effect
COc1ccc(N(CC(N)=O)S(=O)(=O)c2ccc3c(c2)c2ccccc2n3C)c(OC)n1	3.56 µM	4.28 µM	1.97 µM		
COc1ccc(/C=C\c2cc(OC)c(OC)c(OC)c2)cc1O [COMBRETASTATIN A4]	0.084 µM	0.003 µM	0.002 µM		
COc1ccc(N(C(=O)CCN2CCCCC2)S(=O)(=O)c2ccc3c(c2)c2ccccc2n3C)c(OC)n1.Cl				18.6 mg/mL	
COc1ccc(N(CCn2ccnc2)S(=O)(=O)c2ccc3c(c2)c2ccccc2n3C)c(OC)n1	2.59 µM	4.6 µM	1.25 µM		
COc1ccc(N(CCCN(C)C)S(=O)(=O)c2ccc3c(c2)c2ccccc2n3C)c(OC)n1.Cl				20.5 mg/mL	
COc1ccc(N(CCCn2ccnc2)S(=O)(=O)c2ccc3c(c2)c2ccccc2n3C)c(OC)n1	4.64 µM	4.53 µM	1.39 µM		
COc1ccc(N(CCOC(=O)CN2CCN(C)CC2)S(=O)(=O)c2ccc3c(c2)c2ccccc2n3C)c(OC)n1.Cl				> 30 mg/mL	
COc1ccc(N(C(=O)CCN2CCN(C)CC2)S(=O)(=O)c2ccc3c(c2)c2ccccc2n3C)c(OC)n1	0.2 µM	0.17 µM	0.07 µM		
COc1ccc(N(CCNC(=O)CN)S(=O)(=O)c2ccc3c(c2)c2ccccc2n3C)c(OC)n1	2.17 µM	1.6 µM	1.26 µM		
COc1ccc(N(CCCN(C)C)S(=O)(=O)c2ccc3c(c2)c2ccccc2n3C)c(OC)n1	10.8 µM	7.15 µM	2.73 µM		
COc1ccc(N(CCN(C)C)S(=O)(=O)c2ccc3c(c2)c2ccccc2n3C)c(OC)n1.Cl				29.1 mg/mL	
COc1ccc(N(CCOC(=O)CN2CCN(C)CC2)S(=O)(=O)c2ccc3c(c2)c2ccccc2n3C)c(OC)n1	4.92 µM	5.98 µM	4.3 µM		
COc1ccc(N(C(=O)CCN2CCCCC2)S(=O)(=O)c2ccc3c(c2)c2ccccc2n3C)c(OC)n1	0.73 µM	1.16 µM	0.35 µM		Activity (MDA-MB-231): 40.1%; Activity [4]: Non-Toxic
COc1ccc(NS(=O)(=O)c2ccc3c(c2)c2ccccc2n3C)c(OC)n1		0.68 µM	0.095 µM	< 0.001 mg/mL	
COc1ccc(N(CCO)S(=O)(=O)c2ccc3c(c2)c2ccccc2n3C)c(OC)n1	4.13 µM	1.43 µM	4.04 µM		
COc1ccc(N(CCCn2ccnc2)S(=O)(=O)c2ccc3c(c2)c2ccccc2n3C)c(OC)n1.Cl				18.4 mg/mL	
COc1ccc(N(CCOP(=O)(O)O)S(=O)(=O)c2ccc3c(c2)c2ccccc2n3C)c(OC)n1 [listing 2 of 2 here]					Activity (HepG2 [5]): Dose-dependent effect
COc1ccc(N(C(=O)CCN2CCN(C)CC2)S(=O)(=O)c2ccc3c(c2)c2ccccc2n3C)c(OC)n1.Cl				17.6 mg/mL	
COc1ccc(N(CCN2CCSCC2)S(=O)(=O)c2ccc3c(c2)c2ccccc2n3C)c(OC)n1.Cl				0.27 mg/mL	
COc1ccc(N(CCOC(N)=O)S(=O)(=O)c2ccc3c(c2)c2ccccc2n3C)c(OC)n1.Cl				0.47 mg/mL	
COc1ccc(NS(=O)(=O)c2ccc3c(c2)c2ccc(OP(=O)([O-])[O-])cc2n3C)c(OC)n1.Cl.[Na+].[Na+]				> 30 mg/mL	
COc1ccc(N(CCOP(=O)([O-])[O-])S(=O)(=O)c2ccc3c(c2)c2ccccc2n3C)c(OC)n1.Cl.[Na+].[Na+]				22.4 mg/mL	

From ChEMBL document CHEMBL4680211, “Synthesis and structure-activity relationship study of water-soluble carbazole sulfonamide derivatives as new anticancer agents” (Eur J Med Chem, 2020)
